For orientation: inhibition means how much of the control response was suppressed. As usually defined, the Ki is a measure of affinity in units of concentration, obtained from inhibition or displacement. The low end stands for tighter binding, the high end for weaker binding. Usually IC50 stands for the point on the concentration scale where inhibition reaches its midpoint. Broadly, the Papp is the rate of passage across a membrane or cell layer, normalised by area and donor concentration.

In data set [1] the test system is HUVEC. The data set is described as follows: Antiangiogenic activity in HUVEC co-cultured with vascular smooth muscle cells assessed as inhibition of network formation at 1.8 after 72 hrs. The class given is functional, cell-based. The following applies: Homo sapiens.
Data set [2] relates to HUVEC. The data set is described as follows: Antiangiogenic activity in HUVEC co-cultured with vascular smooth muscle cells assessed as inhibition of network formation at […] after 72 hrs. The class given is functional, cell-based. The following applies: Homo sapiens.
Data set [3] has as its system HUVEC. As to the kind of experiment: Antiangiogenic activity in HUVEC co-cultured with vascular smooth muscle cells assessed as inhibition of network formation at 10 to 15 uM after 72 hrs. The class given is functional, cell-based. The following applies: Homo sapiens.
Data set [4] concerns HUVEC. As to the kind of experiment: Antiangiogenic activity in HUVEC co-cultured with vascular smooth muscle cells assessed as inhibition of cell growth at […] after 72 hrs. The class given is functional, cell-based. The following applies: Homo sapiens.
The target in data set [5] is Proto-oncogene tyrosine-protein kinase Src (Homo sapiens) (UniProt P12931). As to the kind of experiment: Inhibition of c-Src at 100 uM.
Chain of Proto-oncogene tyrosine-protein kinase Src (Homo sapiens) (P12931 2-536 limits assumed): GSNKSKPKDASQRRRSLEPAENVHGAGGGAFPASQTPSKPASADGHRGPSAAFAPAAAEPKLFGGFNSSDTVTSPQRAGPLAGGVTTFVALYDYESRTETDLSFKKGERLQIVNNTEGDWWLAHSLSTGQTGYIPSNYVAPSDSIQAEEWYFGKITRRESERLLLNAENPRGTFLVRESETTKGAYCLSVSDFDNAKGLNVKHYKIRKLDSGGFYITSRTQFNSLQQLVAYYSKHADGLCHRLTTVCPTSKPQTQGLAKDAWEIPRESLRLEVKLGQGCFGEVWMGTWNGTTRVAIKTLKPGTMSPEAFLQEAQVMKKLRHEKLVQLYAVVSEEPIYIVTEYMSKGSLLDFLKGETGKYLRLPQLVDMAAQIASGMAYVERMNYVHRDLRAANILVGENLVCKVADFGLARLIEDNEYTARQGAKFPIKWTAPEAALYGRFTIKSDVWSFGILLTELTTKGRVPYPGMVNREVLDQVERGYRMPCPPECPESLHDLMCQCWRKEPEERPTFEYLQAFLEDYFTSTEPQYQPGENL
Data set [6] concerns HUVEC. The data set is described as follows: Antiangiogenic activity in HUVEC co-cultured with vascular smooth muscle cells assessed as inhibition of network formation at 1.8 to 15 uM after 72 hrs. It counts as functional, cell-based. The following applies: Homo sapiens.
The target in data set [7] is Tyrosine-protein kinase ABL1 (Homo sapiens, UniProt P00519). The data set is described as follows: Inhibition of Abl.
Data set [8] addresses Angiopoietin-1 receptor (Homo sapiens) (UniProt Q02763). The data set is described as follows: Inhibition of Tek at 10 uM.
Data set [9] is filed under the species Homo sapiens. As to the kind of experiment: Inhibition of PKB at 10 uM.
In data set [10] the target is Hepatocyte growth factor receptor (Homo sapiens) (UniProt P08581). As to the kind of experiment: Inhibition of Met at 10 uM.
Data set [11] has as its target Cyclin-dependent kinase 2 (Homo sapiens) (UniProt P24941). The data set is described as follows: Inhibition of CDK2A at 10 uM.
Data set [12] concerns the target Insulin-like growth factor 1 receptor (Homo sapiens) (UniProt P08069). As to the kind of experiment: Inhibition of IGF-1R at 10 uM.
For data set [13], the species on record is Danio rerio. As to the kind of experiment: Toxicity in embryos of zebrafish assessed as induction of growth malformation at 0.5 to 2 uM treated 16 hrs post fertilization measured after 24 hrs. The class given is organism-based. The following applies: in vivo.
Data set [14] concerns the target Receptor-type tyrosine-protein kinase FLT3 (Homo sapiens) (UniProt P36888). The data set is described as follows: Inhibition of Flt-3 at 10 uM.
For data set [15], the target named is 3-phosphoinositide-dependent protein kinase 1 (Homo sapiens) (UniProt O15530). As to the kind of experiment: Inhibition of PDK1 at 10 uM.
Data set [16] deals with T1, Vascular endothelial growth factor receptor 2 (Homo sapiens, UniProt P35968). As to the kind of experiment: Inhibition of VEGFR2 expressed in porcine aortic endothelial cells. It counts as cell-based, Endothelial cell.
T1 sequence (P35968 whole entry): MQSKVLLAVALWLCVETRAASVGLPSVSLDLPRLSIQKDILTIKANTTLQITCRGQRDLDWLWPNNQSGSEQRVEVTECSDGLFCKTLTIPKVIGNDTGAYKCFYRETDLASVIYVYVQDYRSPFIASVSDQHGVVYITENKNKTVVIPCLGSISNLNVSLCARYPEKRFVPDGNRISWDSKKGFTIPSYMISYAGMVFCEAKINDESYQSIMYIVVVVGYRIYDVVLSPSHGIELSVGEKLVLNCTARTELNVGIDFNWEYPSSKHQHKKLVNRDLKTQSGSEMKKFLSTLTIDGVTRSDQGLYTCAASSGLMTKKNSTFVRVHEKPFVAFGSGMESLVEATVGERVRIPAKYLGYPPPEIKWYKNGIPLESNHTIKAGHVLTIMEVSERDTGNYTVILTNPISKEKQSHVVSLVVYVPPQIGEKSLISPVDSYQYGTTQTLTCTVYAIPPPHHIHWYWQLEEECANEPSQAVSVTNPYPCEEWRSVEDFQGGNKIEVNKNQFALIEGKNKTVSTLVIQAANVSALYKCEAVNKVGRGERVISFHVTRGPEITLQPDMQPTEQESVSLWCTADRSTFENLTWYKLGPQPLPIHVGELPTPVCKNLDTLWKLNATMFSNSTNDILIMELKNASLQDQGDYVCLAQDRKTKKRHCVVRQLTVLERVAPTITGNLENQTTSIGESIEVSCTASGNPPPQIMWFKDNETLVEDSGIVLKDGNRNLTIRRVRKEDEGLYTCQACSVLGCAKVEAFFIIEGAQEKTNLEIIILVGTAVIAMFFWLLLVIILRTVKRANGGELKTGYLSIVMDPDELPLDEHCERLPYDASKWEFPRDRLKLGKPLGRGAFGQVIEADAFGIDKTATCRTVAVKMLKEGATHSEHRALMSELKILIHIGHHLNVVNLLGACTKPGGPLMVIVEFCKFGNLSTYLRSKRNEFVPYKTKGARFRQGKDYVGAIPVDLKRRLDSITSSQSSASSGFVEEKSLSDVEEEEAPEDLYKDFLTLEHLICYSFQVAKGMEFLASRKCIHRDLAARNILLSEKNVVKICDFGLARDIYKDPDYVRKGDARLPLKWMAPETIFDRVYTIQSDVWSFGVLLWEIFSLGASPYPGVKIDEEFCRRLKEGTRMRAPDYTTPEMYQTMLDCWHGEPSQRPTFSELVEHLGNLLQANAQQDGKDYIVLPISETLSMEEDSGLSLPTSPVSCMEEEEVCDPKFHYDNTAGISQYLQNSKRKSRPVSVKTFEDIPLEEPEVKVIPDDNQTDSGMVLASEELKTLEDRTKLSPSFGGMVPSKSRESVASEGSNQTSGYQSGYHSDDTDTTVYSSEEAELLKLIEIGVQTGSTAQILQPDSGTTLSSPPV
The target in data set [17] is T1, Vascular endothelial growth factor receptor 2. The data set is described as follows: Inhibition of VEGFR-2 at 10 uM.
Data set [18] concerns the target Proto-oncogene tyrosine-protein kinase receptor Ret (Homo sapiens) (UniProt P07949). The data set is described as follows: Inhibition of Ret at 10 uM.
In data set [19] the test system is HUVEC. As to the kind of experiment: Cytotoxicity against HUVEC co-cultured with vascular smooth muscle cells assessed as rounded-up, unconnected and unicellular morphology phenotype. The class given is cell-based. The following applies: human.
The species entered for data set [20] is Homo sapiens. As to the kind of experiment: Inhibition of PKA at 10 uM.
For data set [21], the target named is Ephrin type-B receptor 4 (Homo sapiens) (UniProt P54760). As to the kind of experiment: Inhibition of EphB4 at 10 uM.
Data set [22] has as its system HUVEC. The data set is described as follows: Antiangiogenic activity in HUVEC co-cultured with vascular smooth muscle cells assessed as inhibition of network formation at 1.8 to 16 uM after 72 hrs. The class given is functional, cell-based. The following applies: Homo sapiens.
The target in data set [23] is Epidermal growth factor receptor (Homo sapiens) (UniProt P00533). As to the kind of experiment: Inhibition of HER-1 at 10 uM.
Data set [24] in a line: Permeability of the compound assessed as membrane retention by PAMPA. It counts as ADME. (In general: The PAMPA barrier holds no transporters, so it reflects passive diffusion.)
Data set [25] relates to Liver microsomes. As to the kind of experiment: Metabolic stability of the compound in human liver microsomes assessed as compound remaining. The class given is ADME, Microsome.
Data set [26] has as its target Tyrosine-protein kinase JAK2 (Homo sapiens) (UniProt O60674). The data set is described as follows: Inhibition of Jak2 at 10 uM.
In data set [27] the target is Tyrosine-protein kinase receptor UFO (Homo sapiens) (UniProt P30530). The data set is described as follows: Inhibition of Axl at 10 uM.
Data set [28] is filed under the species Homo sapiens. As to the kind of experiment: Inhibition of FGFR3 […] mutant at 10 uM.
The target of data set [29] is Focal adhesion kinase 1 (Homo sapiens) (UniProt Q05397). The data set is described as follows: Inhibition of FAK at 10 uM.
Chain of Focal adhesion kinase 1 (Homo sapiens) (Q05397 2-1052 limits assumed): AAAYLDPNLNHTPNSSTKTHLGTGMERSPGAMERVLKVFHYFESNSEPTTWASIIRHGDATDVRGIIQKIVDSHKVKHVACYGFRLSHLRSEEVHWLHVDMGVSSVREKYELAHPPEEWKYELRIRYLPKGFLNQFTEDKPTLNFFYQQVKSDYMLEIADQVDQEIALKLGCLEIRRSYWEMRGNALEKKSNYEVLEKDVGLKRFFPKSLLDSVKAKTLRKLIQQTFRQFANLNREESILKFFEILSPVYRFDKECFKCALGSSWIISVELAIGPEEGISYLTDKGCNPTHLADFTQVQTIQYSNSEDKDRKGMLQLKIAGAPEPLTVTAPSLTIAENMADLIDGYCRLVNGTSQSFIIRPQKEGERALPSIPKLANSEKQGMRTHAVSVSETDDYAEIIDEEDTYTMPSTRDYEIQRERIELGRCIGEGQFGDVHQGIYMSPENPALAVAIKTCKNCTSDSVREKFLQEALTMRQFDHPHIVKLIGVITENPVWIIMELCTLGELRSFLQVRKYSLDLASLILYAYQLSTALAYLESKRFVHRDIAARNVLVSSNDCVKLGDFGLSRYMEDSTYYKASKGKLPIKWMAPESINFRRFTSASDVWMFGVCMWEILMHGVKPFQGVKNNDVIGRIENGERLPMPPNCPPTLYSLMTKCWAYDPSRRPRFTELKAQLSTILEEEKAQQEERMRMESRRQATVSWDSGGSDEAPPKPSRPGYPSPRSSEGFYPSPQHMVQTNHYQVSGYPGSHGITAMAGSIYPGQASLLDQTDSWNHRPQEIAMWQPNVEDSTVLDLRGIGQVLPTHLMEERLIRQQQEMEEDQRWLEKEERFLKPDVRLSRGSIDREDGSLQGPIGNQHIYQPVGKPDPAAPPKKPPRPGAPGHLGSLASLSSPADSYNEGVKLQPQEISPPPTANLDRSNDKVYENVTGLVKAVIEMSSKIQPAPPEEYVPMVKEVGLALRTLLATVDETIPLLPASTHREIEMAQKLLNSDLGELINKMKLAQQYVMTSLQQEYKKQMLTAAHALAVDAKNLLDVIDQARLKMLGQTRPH
The subject of data set [30] is Serine/threonine-protein kinase B-raf (Homo sapiens), P15056 [V600E]. As to the kind of experiment: Inhibition of B-Raf V599E mutant at 10 uM.
Data set [31] addresses Proto-oncogene tyrosine-protein kinase Src (Homo sapiens) (UniProt P12931). The data set is described as follows: Inhibition of Src at 10 uM.
In data set [32] the test system is HUVEC. As to the kind of experiment: Cytotoxicity against HUVEC co-cultured with vascular smooth muscle cells assessed as cell death at 16 uM. The class given is cell-based. The following applies: human.
Data set [33] is described as follows: Apparent permeability of the compound assessed as membrane permeation by PAMPA. The class given is ADME.

SMILES strings stand for the structures. The source made the active and inactive calls. No cut-off for these calls is given here.

Chain of Receptor-type tyrosine-protein kinase FLT3 (Homo sapiens) (P36888 whole entry): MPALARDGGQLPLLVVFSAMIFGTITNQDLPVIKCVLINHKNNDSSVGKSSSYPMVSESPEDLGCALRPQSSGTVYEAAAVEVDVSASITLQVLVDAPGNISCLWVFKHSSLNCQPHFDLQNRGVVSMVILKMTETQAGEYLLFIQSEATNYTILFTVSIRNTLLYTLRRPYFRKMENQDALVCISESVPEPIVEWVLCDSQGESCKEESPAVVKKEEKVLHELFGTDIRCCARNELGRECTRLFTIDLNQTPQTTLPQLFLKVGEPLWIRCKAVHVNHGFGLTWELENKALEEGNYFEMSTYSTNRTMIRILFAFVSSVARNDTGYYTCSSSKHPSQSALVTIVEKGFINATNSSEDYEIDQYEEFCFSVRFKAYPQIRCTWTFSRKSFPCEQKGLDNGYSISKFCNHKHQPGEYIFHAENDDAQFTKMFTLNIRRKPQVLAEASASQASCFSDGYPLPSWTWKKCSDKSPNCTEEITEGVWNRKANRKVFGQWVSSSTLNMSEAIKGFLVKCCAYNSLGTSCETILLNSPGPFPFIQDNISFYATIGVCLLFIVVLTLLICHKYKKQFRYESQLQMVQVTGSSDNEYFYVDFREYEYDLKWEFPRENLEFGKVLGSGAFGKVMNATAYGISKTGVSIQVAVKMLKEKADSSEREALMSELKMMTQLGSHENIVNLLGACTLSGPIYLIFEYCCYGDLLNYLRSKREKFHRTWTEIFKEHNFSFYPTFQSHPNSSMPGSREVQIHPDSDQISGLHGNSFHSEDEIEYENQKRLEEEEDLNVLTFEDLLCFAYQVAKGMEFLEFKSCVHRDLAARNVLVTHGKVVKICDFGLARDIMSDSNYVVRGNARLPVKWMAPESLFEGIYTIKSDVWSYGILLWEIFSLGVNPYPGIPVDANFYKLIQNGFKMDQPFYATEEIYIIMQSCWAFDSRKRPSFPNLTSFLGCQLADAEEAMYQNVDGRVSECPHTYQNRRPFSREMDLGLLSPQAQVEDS
Chain of Tyrosine-protein kinase JAK2 (Homo sapiens) (O60674 whole entry): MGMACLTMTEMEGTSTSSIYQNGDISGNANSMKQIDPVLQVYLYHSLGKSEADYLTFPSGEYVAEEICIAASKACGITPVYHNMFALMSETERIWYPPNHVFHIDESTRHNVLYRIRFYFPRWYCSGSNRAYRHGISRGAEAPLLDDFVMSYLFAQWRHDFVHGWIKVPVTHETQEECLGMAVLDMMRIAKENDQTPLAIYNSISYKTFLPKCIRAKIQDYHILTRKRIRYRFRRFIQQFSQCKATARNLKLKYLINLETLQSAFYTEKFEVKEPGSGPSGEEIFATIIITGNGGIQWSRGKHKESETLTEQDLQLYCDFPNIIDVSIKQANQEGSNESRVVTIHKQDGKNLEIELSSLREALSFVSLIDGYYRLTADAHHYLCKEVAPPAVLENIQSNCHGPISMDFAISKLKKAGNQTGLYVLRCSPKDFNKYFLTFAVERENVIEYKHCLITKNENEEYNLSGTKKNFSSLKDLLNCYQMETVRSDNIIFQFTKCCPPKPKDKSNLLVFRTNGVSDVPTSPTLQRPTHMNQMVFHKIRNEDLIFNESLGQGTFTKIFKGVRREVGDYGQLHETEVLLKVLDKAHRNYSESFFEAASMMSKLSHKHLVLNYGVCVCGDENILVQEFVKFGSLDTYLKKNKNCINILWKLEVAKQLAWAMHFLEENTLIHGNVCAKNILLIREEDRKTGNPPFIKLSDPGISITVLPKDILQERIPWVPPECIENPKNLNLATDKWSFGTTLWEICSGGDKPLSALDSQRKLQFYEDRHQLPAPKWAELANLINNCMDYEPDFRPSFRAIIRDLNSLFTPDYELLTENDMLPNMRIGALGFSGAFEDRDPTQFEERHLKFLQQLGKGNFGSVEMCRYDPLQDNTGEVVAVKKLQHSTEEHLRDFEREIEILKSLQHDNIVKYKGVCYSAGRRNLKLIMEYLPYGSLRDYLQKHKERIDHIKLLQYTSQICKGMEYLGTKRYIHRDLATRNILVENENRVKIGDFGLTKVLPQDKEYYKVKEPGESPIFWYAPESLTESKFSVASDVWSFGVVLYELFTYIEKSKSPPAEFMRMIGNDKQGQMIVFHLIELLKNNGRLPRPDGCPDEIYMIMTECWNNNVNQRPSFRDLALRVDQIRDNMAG

For the compound `Cc1cn(-c2cc(NC(=O)c3ccc(C)c(Nc4nccc(-c5cccnc5)n4)c3)cc(C(F)(F)F)c2)cn1`, the inhibition result in data set [1] and in data set [2] was “inactive” throughout. In addition, the inhibition result in data set [3] and in [4] was “Active” each time.

With `ClC(Cn1ncc2c(NCCc3ccccc3)nc(SCCN3CCOCC3)nc21)c1ccccc1` (stereo unspecified), the inhibition result in data set [5] was “inactive”.

As to `Cc1nc(Nc2ncc(C(=O)Nc3c(C)cccc3Cl)s2)cc(N2CCN(CCO)CC2)n1`, the inhibition result in data set [2] is “inactive”. Further, the inhibition result in [4] and in data set [6] was “Active” in each case.

As to `C(=C/n1ncc2c(NCCc3ccccc3)ncnc21)/c1ccccc1`, the affinity in data set [7] corresponds to a Ki of 9.75 µM. Also, in data set [5], the inhibition result was “inactive”.

Consider `ClC(Cn1ncc2c(NCc3ccccc3)ncnc21)c1ccccc1` (stereo unspecified), for which the inhibition in [8] is 6%; in [9] it was 17%; in [10], 10%; in data set [11], 8%; in [12] it was 0%; in data set [14], 13%. The inhibition in [15] came out at 0%; in [17], 29%; in data set [18], 5%; in data set [20], 0%; in data set [21] it was 25%; in [23], 56%. The inhibition came out at 6% in data set [26]; 8% in data set [27]; 0% in data set [28]; 0% in data set [29]; 42% in [30]; 89% in data set [31]. The Activity result is given as “Toxic” in data set [13] and “Non-toxic” in [19]. This compound also had an IC50 in [16] of 1 µM. Also, the inhibition result in data set [22] was “Active”. Further, the permeability in data set [24] was 6%. For the same compound, the Stability in [25] is given as 82%.

As for `CSc1nc(NCCc2ccccc2)c2cnn(CC(Cl)c3ccccc3)c2n1` (stereo unspecified), the Activity result in [32] was “Toxic”.

As to `Clc1cccc(Nc2nc(SCCN3CCOCC3)nc3c2cnn3CC(Cl)c2ccccc2)c1` (stereo unspecified), the Activity result in data set [13] was “Toxic”; in data set [19], “Non-toxic”. Also, the inhibition entry in data set [22] was “Active”. Besides, the permeability in data set [24] came out at 47.7%. In addition, the apparent permeability coefficient (Papp) in data set [33] was 3 ×10⁻⁶ cm/s. Also, the Stability in [25] was 92.5%.

The values above are taken from ChEMBL document CHEMBL2069178, “A combined targeted/phenotypic approach for the identification of new antiangiogenics agents active on a zebrafish model: from in silico screening to cyclodextrin formulation” (Bioorg Med Chem Lett, 2012).
